Where “and” joins values, the source holds several entries; their conditions need not be identical. Identical values can stand only once. Entries after “also recorded” stand apart in the source; their conditions may differ. Like-named read-outs stand apart in the source and are kept apart here. Blank lines part the entries; values can stand above or below the molecule they belong to.
Columns and labels:
[1] = molecular target: T1, human soluble ENPP1 (Homo sapiens, UniProt P22413); test: Enzyme-based ENPP1 inhibitory assay (pNP-TMP substrate, 405 nm); format: biochemical; conditions: for inhibition at 10 µM: pH 9, 10 μM compound, 200 μM pNP-TMP, pH 9.0, 37 °C; for IC50: three independent enzymatic assays, read-out: IC50 against ENPP1 (enzymatic assay)
T1 construct: addition of 20 ng of human soluble ENPP1; His; made in house; host or cells: 293-F cells (protein harvested from the medium)
T1 sequence (P22413 103-925 limits assumed): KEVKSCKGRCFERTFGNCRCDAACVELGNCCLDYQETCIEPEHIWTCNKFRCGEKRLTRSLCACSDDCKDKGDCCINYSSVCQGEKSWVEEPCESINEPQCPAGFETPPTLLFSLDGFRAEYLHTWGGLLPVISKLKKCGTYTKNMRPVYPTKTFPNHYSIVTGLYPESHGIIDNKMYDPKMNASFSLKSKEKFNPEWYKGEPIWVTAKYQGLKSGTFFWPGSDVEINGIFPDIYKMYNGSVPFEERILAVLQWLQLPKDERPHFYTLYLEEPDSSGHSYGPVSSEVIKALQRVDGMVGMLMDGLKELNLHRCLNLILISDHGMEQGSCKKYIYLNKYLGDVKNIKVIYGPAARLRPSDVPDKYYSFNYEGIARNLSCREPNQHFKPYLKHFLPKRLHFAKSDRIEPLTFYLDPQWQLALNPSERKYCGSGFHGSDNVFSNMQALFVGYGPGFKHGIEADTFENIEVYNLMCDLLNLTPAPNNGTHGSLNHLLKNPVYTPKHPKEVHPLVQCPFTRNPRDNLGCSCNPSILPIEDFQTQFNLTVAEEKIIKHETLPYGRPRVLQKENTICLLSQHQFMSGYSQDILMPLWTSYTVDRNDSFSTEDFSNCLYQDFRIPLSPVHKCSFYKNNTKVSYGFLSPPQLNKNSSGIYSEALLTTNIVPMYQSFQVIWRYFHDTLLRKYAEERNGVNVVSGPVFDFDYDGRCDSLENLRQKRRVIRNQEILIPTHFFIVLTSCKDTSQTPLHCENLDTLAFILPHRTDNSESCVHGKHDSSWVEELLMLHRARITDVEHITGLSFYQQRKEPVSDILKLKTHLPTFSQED
Method: In total, 1 mg hENPP1-HIS DNA using polyethylenimine at a DNA:PEI ratio of 1:3 was transfected into 1 L of 293-F cells in 293 freestyle medium. The medium was harvested after five days and filter-sterilized. […] Approximately 1 mg of purified protein was obtained from the 1-liter culture. The quality of the protein purification was validated by SDS-PAGE analysis (see Figure S1).
The initial screenings were carried out at 37 °C in a total volume of 0.1 mL of the following incubation mixture: 1 mM CaCl2, 200 μM ZnCl2, 50 mM Tris, pH 9.0, and 10 μM of each test compound. The enzyme reactions began with the addition of 20 ng of human soluble ENPP1, then incubated at 37 °C for 10 min and initiated by the addition of 200 μM pNP-TMP. The production of p-nitrophenol was measured after 30 min reaction at 405 nm. […] For the blank samples, the enzyme was added at the end of the reaction and read immediately. The IC50 values of test compounds were calculated by plotting three independent experiments using the program Prism 5.0. Incubation and operation conditions remained the same as those described above.

[2] = molecular target: T2, ENPP1 in the MDA-MB-231 cell line (Homo sapiens, UniProt P22413); test: Cellular ENPP1 enzymatic inhibition assay in MDA-MB-231 cells (pNP-TMP); format: cell-based; conditions: 4 h incubation, 200 μM pNP-TMP; three independent cell assays; read-out: IC50 against ENPP1 in MDA-MB-231 cell line
T2 construct: MDA-MB-231 cells highly expressed ENPP1; endogenous in cells; host or cells: MDA-MB-231
T2 sequence (P22413 1-925): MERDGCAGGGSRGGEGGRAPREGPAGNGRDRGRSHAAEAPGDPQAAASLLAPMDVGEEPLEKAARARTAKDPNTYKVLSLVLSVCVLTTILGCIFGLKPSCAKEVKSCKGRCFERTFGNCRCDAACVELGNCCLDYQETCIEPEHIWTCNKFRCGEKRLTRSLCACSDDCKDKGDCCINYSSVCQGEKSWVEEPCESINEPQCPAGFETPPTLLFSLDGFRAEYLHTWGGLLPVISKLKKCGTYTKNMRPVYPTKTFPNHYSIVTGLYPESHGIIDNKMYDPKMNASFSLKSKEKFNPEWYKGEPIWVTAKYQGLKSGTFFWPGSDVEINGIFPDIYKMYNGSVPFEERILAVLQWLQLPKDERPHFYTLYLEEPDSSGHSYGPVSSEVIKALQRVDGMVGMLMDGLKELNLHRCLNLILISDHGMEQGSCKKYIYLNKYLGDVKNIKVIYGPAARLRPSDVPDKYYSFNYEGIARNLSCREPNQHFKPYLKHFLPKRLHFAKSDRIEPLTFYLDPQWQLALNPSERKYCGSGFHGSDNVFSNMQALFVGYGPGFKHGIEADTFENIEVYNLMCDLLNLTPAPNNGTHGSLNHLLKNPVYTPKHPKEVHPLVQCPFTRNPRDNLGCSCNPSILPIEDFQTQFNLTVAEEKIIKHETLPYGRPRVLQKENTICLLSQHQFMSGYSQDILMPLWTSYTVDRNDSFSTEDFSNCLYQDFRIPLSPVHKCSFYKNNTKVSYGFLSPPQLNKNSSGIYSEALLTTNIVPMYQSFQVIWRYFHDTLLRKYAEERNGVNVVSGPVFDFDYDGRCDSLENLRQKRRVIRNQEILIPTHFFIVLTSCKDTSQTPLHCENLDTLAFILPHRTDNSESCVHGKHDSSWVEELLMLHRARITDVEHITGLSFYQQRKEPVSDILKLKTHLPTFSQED
Method: MDA-MB-231 (1.0 × 10^4 cells/well) were grown on 96-well microplates (IWAKI) overnight in the culture medium (100 μL/well) in a humidified incubator containing 5% CO2 in air at 37 °C for 24 h. The plates were washed with D-Hanks (100 μL) twice, and fresh D-Hanks (80 μL) was added. 5% DMSO or test compound (10 μL) was added to each well, and eventually pNP-TMP (2 mM, 10 μL, final 200 μM) was added. After 4 h incubation at 37 °C, the amounts of released p-nitrophenolate were measured at 405 nm. The IC50 values of test compounds were calculated by plotting three independent experiments using the program Prism 5.0 [38].

[3] = tested on: 4T1 cell line; test: Cell proliferation assay (CCK8), 4T1; format: cell-based; conditions: CCK8, 48 h, read-out: IC50 against 4T1 cell line
Method: In total, 1 × 10^4 cells (4T1, LO2 and 293T) were plated in 96-well flat-bottom plates in a final volume of 200 μL DMEM supplemented with 10% FBS and cultured for 24 h. Next, the culture was replaced by fresh DMEM medium (200 μL) and the compound (10 μL) was added. After forty-eight hours, the medium was replaced by PBS (180 μL) mixture with CCK8 solution (20 μL) in each well. Cell viability was evaluated by testing the OD450 nm. The data were processed by GraphPad Prism 7.0 [45, 46].

[4] = tested on: LO2 cell line; test: Cell viability assay (CCK8), LO2; format: cell-based
Method: (§1) Next, the culture was replaced by fresh DMEM medium (200 μL) and the compound (10 μL) was added. After forty-eight hours, the medium was replaced by PBS (180 μL) mixture with CCK8 solution (20 μL) in each well. Cell viability was evaluated by testing the OD450 nm. The data were processed by GraphPad Prism 7.0 [45, 46].

[5] = tested on: 293T cell line; test: Cell viability assay (CCK8), 293T; format: cell-based
Method: as §1

[6] = tested on: IFN-β in serum; test: IFN-β in mouse serum by ELISA after i.v. administration; format: in vivo, BALB/c nude mice; conditions: blood after 0.5 h
Method: The animal studies were conducted with the approval of the Animal Care and Use Committee at Fudan University. BALB/c nude mice (6−8 weeks) were randomized into three groups (n = 3, with a total tumor number of 9). Free cGAMP (at dose of 5 mg/kg) and cGAMP-compound 4e (at doses of 5 mg/kg cGAMP and 0.5 mg/kg compound 4e), respectively, were injected intravenously (i.v.) into mice via tail vein. After i.v. administration, mouse blood samples were collected from ophthalmic vein after 0.5 h and centrifuged at 500× g for 20 min. The concentration of IFN-β in the serum was determined by mouse ELISA kits, according to the instruction manual.

Compound: COc1ccc2[nH]c(SCc3nc4cc(C)ccc4c(=O)[nH]3)nc2n1 [Compound 4c, 2-(((5-Methoxy-1H-imidazo[4,5-b]pyridin-2-yl)thio)methyl)-7-methylquinazoli-n-4(3H)-one]
inhibition at 10 µM [1]: 75.4%

Compound: COc1ccc2[nH]c(SCc3nc4cc(F)ccc4c(=O)[nH]3)nc2n1 [Compound 4e, 7-Fluoro-2-(((5-methoxy-1H-imidazo[4,5-b]pyridin-2-yl)thio)methyl)quinazolin-4(3H)-one]
inhibition at 10 µM [1]: > 90% | IC50 [1]: 188 nM and < 1000 nM | IC50 [2]: < 1000 nM and 732 nM | IC50 ([3]; Mus musculus, 4T1): 2990 nM | cytotoxic effect (% inhibition) against LO2 ([4]; 50 μM, CCK8, 48 h): 15.33% | cytotoxic effect on LO2 (in words) ([4]; highest concentration 50 μM): nonsignificant cytotoxic effect; also recorded: negligible cytotoxic effects | cytotoxic effect (% inhibition) against 293T ([5]; 50 μM, CCK8, 48 h): 9.35% | cytotoxic effect on 293T (in words) ([5]; highest concentration 50 μM): nonsignificant cytotoxic effect; also recorded: negligible cytotoxic effects | IFN-β expression level in serum, cGAMP-compound 4e group compared with free-cGAMP group ([6]; 5 mg/kg cGAMP and 0.5 mg/kg compound 4e i.v.): higher

Compound: COc1ccc2nc(CSc3nc4nc(OC)ccc4[nH]3)[nH]c(=O)c2c1 [Compound 4b, 6-Methoxy-2-(((5-methoxy-1H-imidazo[4,5-b]pyridin-2-yl)thio)methyl)quinaz-olin-4(3H)-one]
inhibition at 10 µM [1]: 76.5%

Compound: COC(=O)c1ccc2c(=O)[nH]c(CSc3nc4nc(OC)ccc4[nH]3)nc2c1 [Compound 4d, Methyl 2-(((5-methoxy-1H-imidazo[4,5-b]pyridin-2-yl)thio)methyl)-4-oxo-3,4-dihydroquina-zoline-7-carboxylate]
inhibition at 10 µM [1]: > 90% | IC50 [1]: 694 nM | IC50 [2]: 3340 nM

Compound: Nc1nc2c(ncn2[C@@H]2O[C@@H]3COP(=O)(O)O[C@H]4[C@@H](O)[C@H](n5cnc6c(N)ncnc65)O[C@@H]4COP(=O)(O)O[C@@H]2[C@@H]3O)c(=O)[nH]1 [cGAMP, 2′,3′-cyclic GMP-AMP, reference compound]
IFN-β in serum, free cGAMP compared with model mice ([6]; 5 mg/kg cGAMP i.v.): upregulation

Compound: COc1ccc2[nH]c(SCc3nc4cccc(F)c4c(=O)[nH]3)nc2n1 [Compound 4a, 5-Fluoro-2-(((5-methoxy-1H-imidazo[4,5-b]pyridin-2-yl)thio)methyl)quinazol-in-4(3H)-one]
inhibition at 10 µM [1]: 72.2%

Compound: N.N.[Cl][Pt][Cl] [Cisplatin, cisplatin, reference compound]
IC50 [3]: 3200 nM

Second part, the molecule after the results:

inhibition at 10 µM [1]: 72.7%
Compound: COc1ccc2[nH]c(SCc3nc4c(C)cccc4c(=O)[nH]3)nc2n1 [Compound 4g, 2-(((5-Methoxy-1H-imidazo[4,5-b]pyridin-2-yl)thio)methyl)-8-methylquinazoli-n-4(3H)-one]

inhibition at 10 µM [1]: 55.5%
Compound: COc1ccc2[nH]c(SCc3nc4c(Br)cccc4c(=O)[nH]3)nc2n1 [Compound 4h, 8-Bromo-2-(((5-methoxy-1H-imidazo[4,5-b]pyridin-2-yl)thio)methyl)quinazoli-n-4(3H)-one]

inhibition at 10 µM [1]: 52.9%
Compound: COc1ccc2[nH]c(SCc3nc4cc(Cl)ccc4c(=O)[nH]3)nc2n1 [Compound 4f, 7-Chloro-2-(((5-methoxy-1H-imidazo[4,5-b]pyridin-2-yl)thio)methyl)quinazolin-4(3H)-one]
